Measurements taken from US20150225374A1, “4-INDAZOLYLAMINO-2-(2-(INDOL-3-YL)ETHYL)AMINOPYRIMIDINES USEFUL FOR THE TREATMENT OF CANCER” (NOVIGA RESEARCH AB, priority 2012, published 2015).

Key:
[1] = tested on: colchicine site on tubulin (Porcine brain tubulin); assay: Colchicine displacement assay, fluorometric detection; type: binding; details: 2 μM porcine brain tubulin, 2 μM colchicine, compound at 20 μM, 2 h; control = colchicine bound to tubulin
Description: To study whether the compounds bind to the colchicine site on tubulin, a colchicine displacement assay using fluorometric detection was performed as previously described (Bhattacharyya B. et al.; Proc Natl Acad Sci U S A 1974, 71:2627-31; Risinger A L. et al.; J Pharmacol Exp Ther 2011: 336:652-60). Porcine brain tubulin at 2 μM (Cytoskeleton) in a buffer consisting of 80 mM PIPES, 2 mM MgCl2, 0.5 mM EGTA at pH 7.0 with addition of 1 mM GTP, was incubated alone, with 2 μM colchicine or with 2 μM colchicine in the presence of test compounds or reference compound combretastatin A4 at 20 μM for 2 h in a black half-area 96-well plate (Corning Inc, Corning, N.Y., USA). Thereafter, the fluorescence was measured using a FLUOStar Optima (BMG Labtech) at an excitation of 380 nm and emission of 440 nm. The results are presented as percent of control i.e. colchicine bound to tubulin.

[2] = tested on: VEGF-induced cord formation; assay: VEGF-driven vascular cord formation, stem cell co-culture model of angiogenesis (StemKit), neo-angiogenic setting; type: cell-based
Description: (§1) To study the vascular disrupting properties of one of the compounds, example 3, an evaluation of its inhibitory and disruptive effects on VEGF-driven vascular cord formation in an in vitro stem cell co-culture model of angiogenesis (StemKit, Essen Bioscience) was carried out.

established vessels = assay: Stem cell co-culture model of angiogenesis (StemKit), established vessels; type: cell-based; details: doses from 3 nM up to 100 nM, example 3 and combretastatin A4 had equal potency
Description: as §1

[3] = tested on: CCRF-CEM cancer cells - leukemia; assay: Fluorometric Microculture Cytotoxicity Assay (FMCA), CCRF-CEM; type: cell-based; details: Homo sapiens, 72 h, CCRF-CEM acute lymphoblastic leukemia cell line
Description: (§2) The Fluorometric Microculture Cytotoxicity Assay, FMCA (Larsson, R., et al.; Anticancer Res, 1989, 9, 1111-1119), is a three day non-clonogenic microplate-based cell viability assay used for measurement of the cytotoxic and/or cytostatic effect of compounds in vitro (Lindhagen, E. et al.; Nat. Protoc., 2008, 3, 1364-1369). FMCA represents a valuable method to measure cytotoxicity in a number of cell types, both cell lines and primary cells from patients (Larsson, R., et al.; Int. J. Cancer, 1992, 50, 177-185; Fridborg, H., et al.; Eur. J. Cancer, 1999. 35, 424-432; Dhar, S., et al.; Br. J. Cancer, 1996, 74, 888-896).
(§3) FMCA is based on the principle that fluorescein diacetate (FDA) is converted to the fluorescent probe fluorescein by esterases […]. For experiments, 96-well microplates are prepared with compounds and stored at −20° C. or −70° C. until use. Cells are then seeded into the drug-prepared plates and placed in an incubator for 72 h. On the last day of incubation, the plates are washed and a buffer containing FDA is added and incubated with the cells for 45 minutes. Finally the fluorescence per well is measured in a fluorometer and a Survival Index % (SI) for each compound-treated well is calculated with the equation: Compound-treated cells minus blank divided by control cells minus blank. A high SI-value indicates a large percentage of living cells and vice versa.
For experiments with compounds of the invention, 96-well plates were prepared as follows: Compounds were dissolved in DMSO to 10 mM and stored at −20° C. The test compounds were thawed, protected from light, mixed, and 3 μl stock solution was added to test tubes containing 297 μl culture medium RPMI-1640, to give the concentration 100 μM. Then, compounds were serially diluted to concentrations ten times higher than the desired test concentrations. Finally, 20 μl of each compound solution was added in duplicates to wells in two V-bottomed 96-well plates. The plates were stored at −20° C. until use.
On the day of cell seeding, 180 μl of cell suspension was added to each well in the two assay plates. The final concentrations of compounds tested were 10 μM, 1 μM, 0.1 μM and 0.01 μM. The experiment was performed twice.
In subsequent experiments, compounds were tested, along with a number of approved cancer drugs (dasatinib and pazopanib) as described above. The acute lymphoblastic leukemia cell line CCRF-CEM was used throughout. In the assay plates, medium was added to eight empty wells (blank wells) and wells filled with cell suspension served as control wells. SI-values were then calculated for each compound-treated well as described above. All experiments were conducted twice and a new batch of plates was prepared for each experiment.
(§4) To obtain EC50-values, plates were prepared with compounds serially diluted in culture media to suitable concentration ranges for each compound. Thereafter cells were added at a density of 10 000 cells per well and FMCA was performed after 72 h. Data analysis was performed using GraphPadPrism software, where SI values for each concentration were plotted on a log scale and processed with non-linear regression and a standard sigmoidal dose-response model.

A2780 = assay: FMCA cytotoxicity, ovarian cancer cell line A2780; type: cell-based; details: Homo sapiens
Description: as §2, §3, §4
(§5) The compounds of the invention were also tested on further cancer cell lines related to ovarian cancer (A2780; see e.g. Hamilton, T. et al.; Semin. Oncol., 1984, 11, 285-298) and multidrug-resistant ovarian cancer (A2780/Adr). The known microtubule interfering agents vincristine and paclitaxel were included as references in the resistant and non-resistant ovarian cancer cell lines.

A2780/Adr = assay: FMCA cytotoxicity, multidrug-resistant ovarian cancer cell line A2780/Adr; type: cell-based
Description: as §2, §3, §4, §5

bovine tubulin protein = assay: Tubulin polymerization assay kit (Cytoskeleton Inc), fluorescence; type: biochemical; details: cell-free, example compounds at 1, 3 and 10 μM, controls at 3 μM, 60 mins, read-out: Inhibition of tubulin polymerization IC50
Description: Example compounds were further tested in a tubulin polymerization assay kit from Cytoskeleton Inc (Denver, Colo., USA). Polymerization is followed by fluorescence enhancement due to the incorporation of a fluorescent reporter into microtubules as polymerization occurs. Vincristine and paclitaxel at 3 μM were used as positive controls for tubulin polymerization inhibition and stabilisation, respectively. All compounds were dissolved in DMSO, which was used as solvent control. For experiments, example compounds (1, 3, and 10 μM) and control compounds (3 μM) were incubated with bovine tubulin protein in a cell-free environment and the fluorescence was then measured in a fluorometer (Fluostar Optima, BMG Labtech, Offenburg, Germany) at 360/450 nm every minute for a total of 60 mins.

SMILES	Colchicine-tubulin binding Percent of control [1]	threshold concentration of inhibitory effect on VEGF-induced cord formation ([2]; tested from 0.78 nM and upwards, dose dependent inhibitory effect) [nM]	disruption of established blood vessels (established vessels)	EC50 [3] [nM]	EC50 (A2780) [nM]	EC50 (A2780/Adr) [nM]	IC50 (bovine tubulin protein) [nM]	inhibition of VEGF-induced cord formation ([2]; from the lowest tested dose 4.6 nM up to 10 μM) [%]
COc1ccc(/C=C\c2cc(OC)c(OC)c(OC)c2)cc1O [Combretastatin A4, combretastatin A4, reference compound]	66% of control	1.6	concentration dependent disruption of blood vessels	–	–	–	–	–
CCOc1ccc2[nH]cc(CCNc3nccc(Nc4cccc5c4cnn5C)n3)c2c1 [Example 1]	68% of control	–	–	1.9	0.4	3.6	1000 to 3000	–
COc1ccc2[nH]cc(CCNc3nccc(Nc4ccc5cn(C)nc5c4)n3)c2c1 [Example 2, N^2-[2-(5-methoxy-1H-indol-3-yl)ethyl]-N^4-(2-methyl-2H-indazol-6-yl)pyrimidine-2,4-diamine]	77% of control	–	–	5.1	9.3	34	–	–
CCOc1ccc2[nH]cc(CCNc3nccc(Nc4ccc5cn(C)nc5c4)n3)c2c1 [Example 3, N^2-[2-(5-ethoxy-1H-indol-3-yl)ethyl]-N^4-(2-methyl-2H-indazol-6-yl)pyrimidine-2,4-diamine]	68% of control	–	concentration dependent disruption of blood vessels	5.3	0.72	16	~3000	100
COc1ccc2[nH]cc(CCNc3nccc(Nc4ccc5c(C)n(C)nc5c4)n3)c2c1 [Example 4, N^4-(2,3-dimethyl-2H-indazol-6-yl)-N^2-[2-(5-methoxy-1H-indo1-3-yl)ethyl]pyrimidine-2,4-diamine]	94% of control	–	–	11	34	370	~3000	–
CCOc1ccc2[nH]cc(CCNc3nccc(Nc4ccc5c(C)n(C)nc5c4)n3)c2c1 [Example 5, N^4-(2,3-dimethyl-2H-indazol-6-yl)-N^2-[2-(5-ethoxy-1H-indol-3-yl)ethyl]pyrimidine-2,4-diamine]	–	–	–	5.5	8.5	150	–	–
CCOc1ccc2[nH]cc(CCNc3nc(C)cc(Nc4ccc5c(C)n(C)nc5c4)n3)c2c1 [Example 6, N^4-(2,3-dimethylindazol-6-yl)-N^2-[2-(5-ethoxy-1H-indol-3-yl)ethyl]-6-methyl-pyrimidine-2,4-diamine]	99% of control	–	–	34	47	390	3000 to 10000	–
COc1ccc2[nH]cc(CCNc3nccc(Nc4cccc5c4cnn5C)n3)c2c1 [Example 7, N^2-[2-(5-methoxy-1H-indol-3-yl)ethyl]-N^4-(1-methylindazol-4-yl)pyrimidine-2,4-diamine]	64% of control	–	–	5.1	2.9	13	–	–
CC(=O)O[C@H]1C(=O)[C@@]2(C)[C@H]([C@H](OC(=O)c3ccccc3)[C@]3(O)C[C@H](OC(=O)[C@H](O)[C@@H](NC(=O)c4ccccc4)c4ccccc4)C(C)=C1C3(C)C)[C@]1(OC(C)=O)CO[C@@H]1C[C@@H]2O [Paclitaxel, paclitaxel, reference compound]	–	–	–	–	0.26	810	–	–
Cc1nc(Nc2ncc(C(=O)Nc3c(C)cccc3Cl)s2)cc(N2CCN(CCO)CC2)n1 [Ref. 1, dasatinib, reference compound]	–	–	–	9700	–	–	–	–
Cc1ccc(Nc2nccc(N(C)c3ccc4c(C)n(C)nc4c3)n2)cc1S(N)(=O)=O [Ref. 2, pazopanib, reference compound]	–	–	–	25900	–	–	–	–
CC[C@]1(O)C[C@H]2CN(CCc3c([nH]c4ccccc34)[C@@](C(=O)OC)(c3cc4c(cc3OC)N(C=O)[C@H]3[C@@](O)(C(=O)OC)[C@H](OC(C)=O)[C@]5(CC)C=CCN6CC[C@]43[C@@H]65)C2)C1 [Vincristine, vincristine, reference compound]	–	–	–	–	0.22	210	< 3000	–
